Measured values reported in article PMC3197159, “The Atypical Stimulant and Nootropic Modafinil Interacts with the Dopamine Transporter in a Different Manner than Classical Cocaine-Like Inhibitors” (PLoS ONE, 2011).

Legend:
[1] = test system: NET; set-up: method as in Madras et al. (2006) 53; details: ref Madras et al. (2006) 53; read-out: IC50, inhibition of noradrenaline uptake by the NET; cited from earlier work
[2] = target: WT human DAT (Homo sapiens, UniProt Q01959); test: [3H]CFT binding inhibition, intact HEK293 cells expressing WT hDAT; details: inhibition by cold β-CFT
WT human DAT, sequence (Q01959 whole entry): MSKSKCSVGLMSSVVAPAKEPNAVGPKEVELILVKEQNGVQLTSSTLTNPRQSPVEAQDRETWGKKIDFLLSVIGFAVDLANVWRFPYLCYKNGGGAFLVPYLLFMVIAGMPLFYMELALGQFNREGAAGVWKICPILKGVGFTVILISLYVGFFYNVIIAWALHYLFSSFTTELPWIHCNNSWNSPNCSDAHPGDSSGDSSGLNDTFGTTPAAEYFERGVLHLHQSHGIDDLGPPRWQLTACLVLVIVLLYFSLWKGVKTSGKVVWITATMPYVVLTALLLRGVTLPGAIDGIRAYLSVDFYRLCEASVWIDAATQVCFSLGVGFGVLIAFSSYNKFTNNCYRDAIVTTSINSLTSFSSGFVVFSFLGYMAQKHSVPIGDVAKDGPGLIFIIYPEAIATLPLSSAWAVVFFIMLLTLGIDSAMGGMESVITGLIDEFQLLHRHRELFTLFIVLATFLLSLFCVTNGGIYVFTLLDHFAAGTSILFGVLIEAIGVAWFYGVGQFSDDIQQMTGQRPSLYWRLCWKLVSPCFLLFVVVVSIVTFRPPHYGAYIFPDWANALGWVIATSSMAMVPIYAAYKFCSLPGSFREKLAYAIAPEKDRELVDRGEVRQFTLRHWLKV

## COC(=O)C1C(c2ccc(F)cc2)CC2CCC1N2C (stereo not drawn) [β-CFT]
[2]; sodium-free conditions with 10 µM Zn2+
  Bmax of [3H]CFT binding, sodium-free + Zn2+: 502±78 fmole/well
[2]; sodium-free conditions, no Zn2+
  Bmax of [3H]CFT binding, sodium-free: 125±15.8 fmole/well
